Our source for the TGI and GI50 values is PubChem BioAssay (NCI).

Test systems include ACHN renal; M14 melanoma; HL-60(TB) leukemia; SK-MEL-5 melanoma; KM12 colon; MOLT-4 leukemia; CCRF-CEM leukemia; SNB-19 CNS.
Common to all, as to assay: NCI tumour cell line growth inhibition, 48 h

Several values for one entry are separate records, joined by “and”; a condition that tells them apart may be missing. Equal values may be shown once.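 Values below derive from 48-hour exposures of cells grown in 96-well plates, with endpoints linearly interpolated between the two concentrations bracketing the appropriate inhibition level. At the GI50, growth is halved. TGI: concentration producing complete growth inhibition.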

As to `CC(=O)NNc1nc(C)c(C(=O)NNC(=O)C(=O)Nc2ccccc2C#N)s1`, the TGI with ACHN renal, in the assay on M14 melanoma, in the assay with HL-60(TB) leukemia, with SK-MEL-5 melanoma, in the assay on KM12 colon and in the assay on MOLT-4 leukemia was more than 100 µM in each case. Moreover, the TGI in the assay with CCRF-CEM leukemia and in the assay with SNB-19 CNS was more than 100 µM each time.
Turning to `Cc1cccc(NC(=O)CC(=O)N2N=C(N(CCC#N)c3ccc(Cl)cc3)CC2c2ccccc2)c1` (centres undefined), the TGI in the assay with ACHN renal, in the assay with M14 melanoma, in the assay with HL-60(TB) leukemia, with SK-MEL-5 melanoma, in the assay with KM12 colon and in the assay on MOLT-4 leukemia was more than 100 µM in each case. The TGI in the assay on CCRF-CEM leukemia and in the assay with SNB-19 CNS was more than 100 µM throughout.
`CNS(=O)(=O)NN(C)S(=O)(=O)c1ccc(F)cc1`: the TGI in the assay on ACHN renal, with M14 melanoma, in the assay on HL-60(TB) leukemia, with SK-MEL-5 melanoma, in the assay with KM12 colon and with MOLT-4 leukemia was more than 100 µM in each case. Moreover, the TGI in the assay on CCRF-CEM leukemia and with SNB-19 CNS was more than 100 µM each time.
For the compound `O=Cc1cn(C(=O)c2ccccc2)c2ccccc12`, the TGI in the assay on ACHN renal is more than 100 µM; in the assay on M14 melanoma, more than 100 µM; with HL-60(TB) leukemia, 92.6 µM; in the assay with SK-MEL-5 melanoma, more than 100 µM; in the assay with KM12 colon, more than 100 µM; with MOLT-4 leukemia, more than 100 µM. Also, the TGI with CCRF-CEM leukemia is more than 100 µM.
On to `O=C(CP(=O)(O)O)c1cccs1`, for which the TGI in the assay with ACHN renal, in the assay with M14 melanoma, in the assay with HL-60(TB) leukemia, in the assay on SK-MEL-5 melanoma, with KM12 colon and in the assay with CCRF-CEM leukemia was more than 100 µM in each case. Besides, the TGI in the assay with SNB-19 CNS was more than 100 µM.
For `CSC1CC2C(CC1(C)O)C2(C)C` (centres undefined), the TGI was more than 100 µM in the assay with ACHN renal; more than 100 µM with M14 melanoma; 70.5 µM and > 100 µM in the assay with HL-60(TB) leukemia; more than 100 µM in the assay with SK-MEL-5 melanoma; more than 100 µM in the assay on KM12 colon; more than 100 µM in the assay with MOLT-4 leukemia. Besides, the TGI with CCRF-CEM leukemia and in the assay with SNB-19 CNS was more than 100 µM throughout. Moreover, the GI50 was 19 µM and > 100 µM with HL-60(TB) leukemia; more than 100 µM in the assay with MOLT-4 leukemia; 49.3 µM and > 100 µM in the assay with CCRF-CEM leukemia.
`C=CCC1([C@H](C)[C@@H](OC(C)=O)c2cc(OC)c(OC)c(OC)c2)C[C@@H](OC)CCC1=O` (some centres undefined): the TGI is 41.4 µM with ACHN renal; 30.4 µM in the assay on M14 melanoma; 45 µM in the assay with HL-60(TB) leukemia; more than 100 µM in the assay on SK-MEL-5 melanoma; 37 µM in the assay with KM12 colon; 94.3 µM in the assay on MOLT-4 leukemia. The compound also gave a TGI in the assay on CCRF-CEM leukemia of 51.7 µM.
Regarding `Cc1ccc(-c2c(N)[n+]([O-])c3ccccc3[n+]2[O-])cc1`, the TGI in the assay with ACHN renal is 29.1 µM; in the assay on M14 melanoma, 25.3 µM; in the assay on HL-60(TB) leukemia it was more than 100 µM; in the assay with SK-MEL-5 melanoma, 24.4 µM; in the assay with KM12 colon, 26.7 µM; in the assay with MOLT-4 leukemia, more than 100 µM. In addition, the TGI is more than 100 µM in the assay on CCRF-CEM leukemia and 25.4 µM in the assay on SNB-19 CNS.
With `O=C([O-])c1ccccc1Nc1ccccn1.O=C([O-])c1ccccc1Nc1ccccn1.[Ni+2]`, the GI50 in the assay on ACHN renal was more than 100 µM; with M14 melanoma, more than 100 µM; in the assay on SK-MEL-5 melanoma, 73.9 µM; in the assay with KM12 colon it was more than 100 µM; with MOLT-4 leukemia, 89.8 µM; in the assay with CCRF-CEM leukemia it was more than 100 µM. The GI50 in the assay on SNB-19 CNS is more than 100 µM. For the same compound, the TGI with ACHN renal, in the assay on M14 melanoma, with SK-MEL-5 melanoma, in the assay with KM12 colon, in the assay with MOLT-4 leukemia and in the assay with CCRF-CEM leukemia was more than 100 µM in each case. Besides, the TGI with SNB-19 CNS was more than 100 µM.
As to `Cc1cc(N(CCC#N)S(=O)(=O)c2ccccc2)ccc1/C=C1N=C(/C=C/c2ccccc2)OC\1=O`, the TGI with ACHN renal, in the assay on M14 melanoma, with HL-60(TB) leukemia, with SK-MEL-5 melanoma, in the assay with KM12 colon and with MOLT-4 leukemia was more than 100 µM throughout. In addition, the TGI with CCRF-CEM leukemia and in the assay on SNB-19 CNS was more than 100 µM each time.
As for `CC1=NCCc2c1[nH]c1cc(O)ccc21`, the TGI in the assay on ACHN renal, with M14 melanoma, with HL-60(TB) leukemia, in the assay on SK-MEL-5 melanoma, in the assay on KM12 colon and in the assay with MOLT-4 leukemia was more than 100 µM each time. For the same compound, the TGI with CCRF-CEM leukemia and with SNB-19 CNS was more than 100 µM each time.
Turning to `O=c1c2c([nH]c3cc4c(cc13)OCO4)-c1ccccc1CC2`, the TGI with ACHN renal, with M14 melanoma, in the assay with HL-60(TB) leukemia, in the assay with SK-MEL-5 melanoma, in the assay with MOLT-4 leukemia and with CCRF-CEM leukemia was more than 100 µM each time. The compound further yielded a TGI with SNB-19 CNS of more than 100 µM.
In the case of `COc1ccccc1NC(=O)C1=C(C)NC(C)=C(C(=O)Nc2ccccc2OC)C1c1ccccc1F`, the TGI in the assay on ACHN renal, in the assay with M14 melanoma, in the assay with HL-60(TB) leukemia, with SK-MEL-5 melanoma, with KM12 colon and with MOLT-4 leukemia was more than 100 µM each time. Further, the TGI in the assay on CCRF-CEM leukemia and with SNB-19 CNS was more than 100 µM in each case.
For `COC(=O)c1csnn1`, the TGI with ACHN renal, in the assay on M14 melanoma, in the assay with HL-60(TB) leukemia, in the assay on SK-MEL-5 melanoma, in the assay on KM12 colon and in the assay with MOLT-4 leukemia was more than 100 µM each time. Besides, the TGI in the assay on CCRF-CEM leukemia and in the assay on SNB-19 CNS was more than 100 µM each time.
As for `CCCc1[nH]nc(CCC(=O)N(Cc2ccccc2)Cc2ccccc2)c1CC`, the TGI in the assay with ACHN renal, in the assay on M14 melanoma, in the assay on SK-MEL-5 melanoma, with KM12 colon, in the assay with MOLT-4 leukemia and with CCRF-CEM leukemia was more than 100 µM in each case. Besides, the TGI in the assay with SNB-19 CNS is more than 100 µM.
